Measured values: PubChem BioAssay AID1259411 (Chemical Carcinogenesis Research Information System (CCRIS), 2018)
Activity calls are given as the source filed them. No rule for the calls is given here.

System: rodent carcinogenicity bioassays, tumor incidence
Assay: CCRIS carcinogenicity studies
Method in brief: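 Archive of carcinogenicity, mutagenicity, tumor promotion and tumor inhibition results drawn from journals, NCI reports and other sources, expert-reviewed; covers 1985-2011 and is no longer updated.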

## ClC=C(Cl)Cl
Species: MOUSE, Strain/Sex: B6C3F1/FEMALE, Route: GAVAGE, Dose: 0, 869, 1739 MG/KG/D, TWA, Dose: 0, 869, 1739 MG/KG/D, TWA, Tumor Site: Type of Lesion: LIVER: HEPATOCELLULAR CARCINOMA
  carcinogen call: active; positive
Species: MOUSE, Strain/Sex: B6C3F1/FEMALE, Route: GAVAGE, Dose: 0, 1000 MG/KG IN CORN OIL 5 D/WK FOR 103 WK (STUDY DURATION: 107 WK), Tumor Site: Type of Lesion: LIVER: ADENOMA, CARCINOMA
  carcinogen call: active; positive
Species: MOUSE, Strain/Sex: B6C3F1/FEMALE, Route: INHALATION, Dose: 0, 100, 300, 600 PPM 7 HR/D 5 D/WK FOR 78 WK (STUDY DURATION: LIFETIME), Dose: 0, 100, 300, 600 PPM 7 HR/D 5 D/WK FOR 78 WK (STUDY DURATION: LIFETIME), Tumor Site: Type of Lesion: LUNG: TUMOR
  carcinogen call: active; positive
Species: MOUSE, Strain/Sex: B6C3F1/MALE, Route: GAVAGE, Dose: 0, 1000 MG/KG IN CORN OIL 5 D/WK FOR 103 WK (STUDY DURATION: 107 WK), Tumor Site: Type of Lesion: LIVER: ADENOMA, CARCINOMA
  carcinogen call: active; positive
Species: MOUSE, Strain/Sex: B6C3F1/MALE, Route: GAVAGE, Dose: 0, 1169, 2339 MG/KG/D, TWA, Dose: 0, 1169, 2339 MG/KG/D, TWA, Tumor Site: Type of Lesion: LIVER: HEPATOCELLULAR CARCINOMA
  carcinogen call: active; positive
Species: MOUSE, Strain/Sex: B6C3F1/MALE, Route: INHALATION, Dose: 0, 100, 300, 600 PPM 7 HR/D 5 D/WK FOR 78 WK (STUDY DURATION: LIFETIME), Dose: 0, 100, 300, 600 PPM 7 HR/D 5 D/WK FOR 78 WK (STUDY DURATION: LIFETIME)
  carcinogen call: inactive; negative
Species: MOUSE, Strain/Sex: ICR/MALE, FEMALE, Route: GAVAGE, Dose: 0, 10 MG/KG IN CORN OIL 5 D/WK FOR 18 MO (DOSES REDUCED BY FACTOR OF 2 FROM 40TH WEEK)(STUDY DURATION: 24 MO)
  carcinogen call: inactive; negative
Species: MOUSE, Strain/Sex: SWISS/FEMALE, Route: INHALATION, Dose: 0, 100, 300, 600 PPM 7 HR/D 5 D/WK FOR 78 WK (STUDY DURATION: LIFETIME), Dose: 0, 100, 300, 600 PPM 7 HR/D 5 D/WK FOR 78 WK (STUDY DURATION: LIFETIME)
  carcinogen call: inactive; negative
Species: MOUSE, Strain/Sex: SWISS/MALE, Route: INHALATION, Dose: 0, 100, 300, 600 PPM 7 HR/D 5 D/WK FOR 78 WK (STUDY DURATION: LIFETIME), Dose: 0, 100, 300, 600 PPM 7 HR/D 5 D/WK FOR 78 WK (STUDY DURATION: LIFETIME), Tumor Site: Type of Lesion: LUNG: TUMOR, LIVER: HEPATOMA
  carcinogen call: active; positive
Species: RAT, Strain/Sex: F344/FEMALE, Route: GAVAGE, Dose: 0, 500, 1000 MG/KG IN CORN OIL 5 D/WK FOR 103 WK (STUDY DURATION: 107 WK), Dose: 0, 500, 1000 MG/KG IN CORN OIL 5 D/WK FOR 103 WK (STUDY DURATION: 107 WK)
  carcinogen call: inactive; negative
Species: RAT, Strain/Sex: SPRAGUE-DAWLEY/FEMALE, Route: GAVAGE, Dose: 0, 50, 250 MG/KG BW IN OLIVE OIL 1/D 4-6 D/WK FOR 52 WK (STUDY DURATION: LIFETIME), Dose: 0, 50, 250 MG/KG BW IN OLIVE OIL 1/D 4-6 D/WK FOR 52 WK (STUDY DURATION: LIFETIME), Tumor Site: Type of Lesion: [BRAIN WAS ONLY SITE EVALUATED]
  carcinogen call: inactive; negative
Species: RAT, Strain/Sex: SPRAGUE-DAWLEY/FEMALE, Route: INHALATION, Dose: 0, 100, 300, 600 PPM 7 HR/D 5 D/WK FOR 104 WK (STUDY DURATION: LIFETIME), Dose: 0, 100, 300, 600 PPM 7 HR/D 5 D/WK FOR 104 WK (STUDY DURATION: LIFETIME)
  carcinogen call: inactive; negative
Species: RAT, Strain/Sex: SPRAGUE-DAWLEY/MALE, Route: GAVAGE, Dose: 0, 50, 250 MG/KG BW IN OLIVE OIL 1/D 4-6 D/WK FOR 52 WK (STUDY DURATION: LIFETIME), Dose: 0, 50, 250 MG/KG BW IN OLIVE OIL 1/D 4-6 D/WK FOR 52 WK (STUDY DURATION: LIFETIME), Tumor Site: Type of Lesion: [BRAIN WAS ONLY SITE EVALUATED]
  carcinogen call: inactive; negative
Species: RAT, Strain/Sex: SPRAGUE-DAWLEY/MALE, Route: INHALATION, Dose: 0, 100, 300, 600 PPM 7 HR/D 5 D/WK FOR 104 WK (STUDY DURATION: LIFETIME), Dose: 0, 100, 300, 600 PPM 7 HR/D 5 D/WK FOR 104 WK (STUDY DURATION: LIFETIME), Tumor Site: Type of Lesion: TESTIS: LEYDIG CELL TUMOR
  carcinogen call: active; positive

## ClC1=C(Cl)[C@]2(Cl)[C@@H]3[C@H]4C[C@H]([C@@H]5O[C@H]45)[C@@H]3[C@@]1(Cl)C2(Cl)Cl
Species: MOUSE, Strain/Sex: B6C3F1/FEMALE, Route: ORAL, Dose: 0, 2.5, 5 PPM IN DIET, TWA, Dose: 0, 2.5, 5 PPM IN DIET, TWA
  carcinogen call: inactive; negative
Species: MOUSE, Strain/Sex: B6C3F1/MALE, Route: ORAL, Dose: 0, 1.6, 3.2 PPM IN DIET, TWA, Dose: 0, 1.6, 3.2 PPM IN DIET, TWA
  carcinogen call: inactive; negative
Species: RAT, Strain/Sex: OSBORNE-MENDEL/FEMALE, Route: ORAL, Dose: 0, 3, 6 PPM IN DIET, TWA, Dose: 0, 3, 6 PPM IN DIET, TWA
  carcinogen call: inactive; negative
Species: RAT, Strain/Sex: OSBORNE-MENDEL/MALE, Route: ORAL, Dose: 0, 2.5, 5 PPM IN DIET, TWA, Dose: 0, 2.5, 5 PPM IN DIET, TWA
  carcinogen call: inactive; negative

## ClC(Cl)(Cl)Cl
Species: FISH, Strain/Sex: RAINBOW TROUT, Route: INTRAPERITONEAL, Dose: 0, 1 ML/KG AT 21 D INTERVALS FOR A TOTAL OF 7 DOSES (STUDY DURATION: 6 MO)
  carcinogen call: inactive; negative
Species: MOUSE, Route: ORAL, GAVAGE, Tumor Site: Type of Lesion: LIVER: HEPATOMA, HEPATOCELLULAR CARCINOMA
  carcinogen call: active; positive
Species: Mouse, Strain/Sex: BDF1/Female (50/group), Route: Inhalation, Dose: 0, 5, 25, 125 ppm (v/v) 6 hr/d, 5 d/wk for 104 wk, Dose: 0, 5, 25, 125 ppm (v/v) 6 hr/d, 5 d/wk for 104 wk, Tumor Site: Type of Lesion: Liver: hepatocellular carcinoma (2/50; 1/49; 33/50; 48/49), hepatocellular adenoma (2/50; 8/49; 17/50; 5/49). Adrenal Gl, Tumor Site: Type of Lesion: Liver: hepatocellular carcinoma (2/50; 1/49; 33/50; 48/49), hepatocellular adenoma (2/50; 8/49; 17/50; 5/49). Adrenal Gl
  carcinogen call: active; positive
Species: Mouse, Strain/Sex: BDF1/Male (50/group), Route: Inhalation, Dose: 0, 5, 25, 125 ppm (v/v) 6 hr/d, 5 d/wk for 104 wk, Dose: 0, 5, 25, 125 ppm (v/v) 6 hr/d, 5 d/wk for 104 wk, Tumor Site: Type of Lesion: Liver: hepatocellular carcinoma (17/50; 12/50; 44/50; 47/50), hepatocellular adenoma (9/50; 10/50; 27/50; 16/50). Adrena, Tumor Site: Type of Lesion: Liver: hepatocellular carcinoma (17/50; 12/50; 44/50; 47/50), hepatocellular adenoma (9/50; 10/50; 27/50; 16/50). Adrena
  carcinogen call: active; positive (dose related metastasis of liver tumors to lung)
Species: RAT, Route: SUBCUTANEOUS, Tumor Site: Type of Lesion: LIVER: HEPATOCELLULAR CARCINOMA
  carcinogen call: active; positive
Species: Rat, Strain/Sex: F344/Female (50/group), Route: Inhalation, Dose: 0, 5, 25, 125 ppm (v/v) 6 hr/d, 5 d/wk for 104 wk, Dose: 0, 5, 25, 125 ppm (v/v) 6 hr/d, 5 d/wk for 104 wk, Tumor Site: Type of Lesion: Liver: hepatocellular carcinoma (0/50; 0/50; 3/50; 15/50), hepatocellular adenoma (0/50; 0/50; 40/50), Tumor Site: Type of Lesion: Liver: hepatocellular carcinoma (0/50; 0/50; 3/50; 15/50), hepatocellular adenoma (0/50; 0/50; 40/50)
  carcinogen call: active; positive
Species: Rat, Strain/Sex: F344/Male (50/group), Route: Inhalation, Dose: 0, 5, 25, 125 ppm (v/v) 6 hr/d, 5 d/wk for 104 wk, Dose: 0, 5, 25, 125 ppm (v/v) 6 hr/d, 5 d/wk for 104 wk, Tumor Site: Type of Lesion: Liver: hepatocellular carcinoma (1/50; 0/50; 32/50), hepatocellular adenoma (0/50; 1/50; 21/50), Tumor Site: Type of Lesion: Liver: hepatocellular carcinoma (1/50; 0/50; 32/50), hepatocellular adenoma (0/50; 1/50; 21/50)
  carcinogen call: active; positive

## CC(=O)O[C@@H]1[C@@H](O)[C@H]2O[C@@H]3C=C(C)C(=O)[C@@H](O)[C@]3(CO)[C@]1(C)[C@]21CO1
Species: MOUSE, Strain/Sex: BDF1/FEMALE, Route: GAVAGE, Dose: 0, 3.5 MG/KG 1/4 WK FOR 1 YR (STUDY DURATION: 2 YR)
  carcinogen call: inactive; negative
Species: MOUSE, Strain/Sex: BDF1/FEMALE, Route: GAVAGE, Dose: 0, 3.5 MG/KG 1/8 WK FOR 1 YR (STUDY DURATION: 2 YR)
  carcinogen call: inactive; negative
